The results in this text go back to US10941157B2, “Pesticidal compositions and uses thereof” (Gilead Apollo, LLC, priority 2015, dated 2021).

The structures appear in SMILES notation. Converted amounts (≈) assume the structure as drawn. Like-named read-outs stand apart in the source and are kept apart here.

For one experiment, the system named is Puccinia triticina. The experiment in a line: Foliar protection test for wheat leaf rust control. It is filed as in vivo. To be noted: foliar application to wheat (Triticum aestivum cv. Winterhawk), evaluated 10 days later.
The test system of a further experiment is Rhizoctonia solani (Rs). As to the kind of experiment: In vitro pathogen growth inhibition assay, Rs (mycelial plugs). Format: cell-based. To be noted: Rhizoctonia solani, 48 h, mycelial plugs. Put shortly: (§1)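 Spores of Dm, Fv and Pc were diluted in 17% V8 liquid medium; Rs used 1.5 mm mycelial plugs in ¼ PDB. Compounds from 2.5 mg/ml DMSO stocks were combined with inoculum, growth was read by OD600 at 24 and 48 h with blank subtraction, and the reported value is the concentration giving ≥90% inhibition.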

For experiment [1], the system named is Mycosphaerella graminicola (synthetic Septoria tritici). The experiment in a line: Foliar protection test for wheat septoria leaf blotch control. Particulars: foliar spray on Triticum aestivum cv. WinterHawk, inoculated 1 hour after treatment, evaluated 16 days later. It is filed as in vivo.
Experiment [2] relates to Blumeria graminis f. sp. hordei. As to the kind of experiment: Foliar protection test for barley powdery mildew control. It is filed as in vivo. To be noted: foliar spray on Hordeum vulgare cv. Perry, inoculated 24 hours after treatment, evaluated 7 days later. In outline: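 Six-day-old barley (cv. Perry) sprayed to wetness on both leaf sides; 24 h later inoculated by shaking spores from infected stock plants. Kept at 20 to 22° C, 70% relative humidity; mildew colonization assessed 7 days later.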

The next experiment has as its system Rhizoctonia solani. As to the kind of experiment: Seed protectant for soybean seedling disease, R. solani. It is filed as in vivo. To be noted: soybean from treated seeds, 0.025 mg/seed, R. solani inoculated; for Plant Weight: fresh weight at 14 days; for Improvement in plant weight: percentage of non-inoculated non-treated controls. How it is done: The pathogen of Rhizoctonia solani inoculum was grown on sterile sorghum; and the pathogen of Pythium ultimum inoculum was grown on white millet.
Soybean seeds (Glycine max cv. AG4832) were planted in 2.5-inch square pots containing Berger BM2 germination mix amended with fertilizer (e.g., 14-14-14). Pots with soil were inoculated with the pathogen of R. solani or P. ultimum at time of planting. A hole was pressed into the soil to a depth of about 2 to 3 cm; the inoculum was added to the hole, followed by the seed which was then covered with soil. Two seeds per pot were planted. Plants were grown in a growth chamber at conditions of 20 to 24° C., 14 hour light cycle, 500 uM of light, and 65% humidity. The pots inoculated with P. ultimum were sub-irrigated every day; and the pots inoculated with R. solani were sub-irrigated every other day.
Seedling emergence was captured at 7 and 14 days after seeding. At 14 days, the top of the plant was removed and fresh weight was recorded. The plant weights from the seeds treated with test compounds (e.g., in formulations) were compared to the ones either from the inoculated non-treated seeds or non-inoculated non-treated seeds. Table 10 lists the results of the R. solani control in soybean upon seed treatment with test compounds, and Table 11 lists the results of the P. ultimum control in soybean upon seed treatment with test compounds, respectively.

A further experiment relates to Fusarium graminearum. It is filed as in vivo. Particulars: spray on flowering Triticum aestivum cv. Samson, inoculated 24 hours after treatment, evaluated 14 days later.
Another experiment has as its system Phakopsora pachyrhizi. The experiment in a line: Foliar protection test for Asian soybean rust control. Format: in vivo. Particulars: foliar application to soybean (Glycine max AG4832), percent disease area evaluated 14 days later.
The test system of experiment [3] is Phytophthora capsici (Pc). As to the kind of experiment: In vitro pathogen growth inhibition assay, Pc. Format: cell-based. To be noted: 48 h. Put shortly: as §1
Another experiment concerns Sphaerotheca fuliginea. As to the kind of experiment: Foliar protection for cucumber powdery mildew control. It is filed as in vivo. To be noted: foliar spray on Cucumis sativus cv. Straight Eight, inoculated 24 hours after treatment, evaluated 7 days later. Put shortly:
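Cucumber plants (cv. Straight Eight, 10 days old) sprayed to wetness on both leaf surfaces, then inoculated 24 h later by shaking sporulating stock plants over them. Held at 23–27 °C, 16 h light, 60% RH. Mildew colonization scored 7 days after inoculation, at compound concentrations of 10 ppm or lower.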

Experiment [4] concerns Fusarium moniliforme (Fm). As to the kind of experiment: In vitro pathogen growth inhibition assay, Fm. It is filed as cell-based. To be noted: Fusarium verticillioides. Put shortly:
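Spores in 17% V8 liquid medium, or 1.5 mm Rs mycelial plugs in ¼ PDB, incubated with compound; final concentration checked by OD600 for precipitation. OD readings at 24 and 48 h, blank-subtracted, plus visual ratings; value is concentration giving ≥90% growth inhibition.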

The mark [5] stands for this setting: ≥90% growth inhibition, 48 hours, vs 2% DMSO control, read-out: Compound Concentration (ppm) sufficient for ≥90% inhibition of Rs.
Where [6] appears, read: ≥90% growth inhibition, 48 hours, vs 2% DMSO control, read-out: Compound Concentration (ppm) sufficient for ≥90% inhibition of Pc.
The mark [7] stands for this setting: ≥90% growth inhibition, 48 hours, vs 2% DMSO control, read-out: Compound Concentration (ppm) sufficient for ≥90% inhibition of Fm.

For the compound `COc1ccc(F)cc1[C@H](Cn1c(=O)n(C(C)(C)C(=O)NC(C)C)c(=O)c2c(C)c(-n3nccn3)sc21)OCCC#N` [Compound I-095, (R)-2-(1-(2-(2-cyanoethoxy)-2-(5-fluoro-2-methoxyphenyl)ethyl)-5-methyl-2,4-dioxo-6-(2H-1,2,3-triazol-2-yl)-1,4-dihydrothieno[2,3-d]pyrimidin-3 (2H)-yl)-N-isopropyl-2-methylpropanamide], in the experiment with Puccinia triticina, the “Wheat Leaf Rust Control at a compound concentration of 10 ppm or lower” value (shortened to “Wheat Leaf Rust Control … of 10 ppm or lower”) is “AA (≥85% control of wheat leaf rust)”. Besides, the IC90 in the experiment on Rhizoctonia solani (Rs) (≥90% inhibition, 48 hours vs 2% DMSO control, read-out: Compound Concentration (ppm) sufficient for ≥90% inhibition of growth, Rs) is 0.08 mg/L (≈ 0.134 µM); in [3] (≥90% inhibition, 48 hours vs 2% DMSO control, read-out: Compound Concentration (ppm) sufficient for ≥90% inhibition of growth, Pc), at least 2 mg/L; in experiment [4] (≥90% inhibition, 48 hours vs 2% DMSO control, read-out: Compound Concentration (ppm) sufficient for ≥90% inhibition of growth, Fm), 0.08 mg/L (≈ 0.134 µM). In experiment [1], the “Septoria Leaf Blotch Control at a compound concentration of 25 ppm or lower” value was “AA (≥85% control of wheat septoria leaf blotch)”. The “Barley Powdery Mildew Control at a compound concentration of 10 ppm or lower” value in experiment [2] was “AA (≥85% control of barley powdery mildew)”. For the same compound, the “Plant Weight” value with Rhizoctonia solani amounted to 7.54 g. Moreover, the “Improvement in plant weight” value in the experiment on Rhizoctonia solani was found to be 93.9%. Further, in the experiment on Fusarium graminearum, the “Wheat Fusarium Head Blight Control at a compound concentration of 25 ppm or lower” value is recorded as “B (from 50 to 69% control of wheat fusarium head blight)”. The “Asian Soybean Rust Control at a compound concentration of 25 ppm or lower” value (from here on “Asian Soybean Rust Control … of 25 ppm or lower”) in the experiment on Phakopsora pachyrhizi is reported as “AA (≥85% control of Asian soybean rust)”. The “Cucumber Powdery Mildew Control at a compound concentration of 10 ppm or lower” value with Sphaerotheca fuliginea is recorded as “AA (≥85% control of cucumber powdery mildew)”.

As to `COc1ccc(F)cc1[C@H](Cn1c(=O)n(C(C)(C)C(=O)NC(C)C)c(=O)c2c(C)c(-n3cccn3)sc21)OCCC#N` [Compound I-191, (R)-2-(1-(2-(2-cyanoethoxy)-2-(5-fluoro-2-methoxyphenyl)ethyl)-5-methyl-2,4-dioxo-6-(1H-pyrazol-1-yl)-1,4-dihydrothieno[2,3-d]pyrimidin-3 (2H)-yl)-N-isopropyl-2-methylpropanamide], the “Wheat Leaf Rust Control … of 10 ppm or lower” value in the experiment with Puccinia triticina is “AA (≥85% control of wheat leaf rust)”. Further, the results for the IC90 (in the experiment on Rhizoctonia solani (Rs) (setting [5]); in experiment [3] (setting [6]); in experiment [4] (setting [7])) were 0.08 mg/L (≈ 0.134 µM), 50 mg/L (≈ 83.8 µM) and 0.08 mg/L (≈ 0.134 µM), respectively. Besides, the “Septoria Leaf Blotch Control at a compound concentration of 25 ppm or lower” value in [1] was “AA (≥85% control of wheat septoria leaf blotch)”. In addition, the “Barley Powdery Mildew Control at a compound concentration of 10 ppm or lower” value in experiment [2] is “AA (≥85% control of barley powdery mildew)”. Further, in the experiment on Rhizoctonia solani, the “Plant Weight” value was determined as 6.39 g. In the experiment on Rhizoctonia solani, the “Improvement in plant weight” value was found to be 79.6%. The “Wheat Fusarium Head Blight Control at a compound concentration of 25 ppm or lower” value with Fusarium graminearum is “C (from 25 to 49% control of wheat fusarium head blight)”. Moreover, in the experiment with Phakopsora pachyrhizi, the “Asian Soybean Rust Control … of 25 ppm or lower” value was “A (from 70% to 84% control of Asian soybean rust)”. Further, in the experiment with Sphaerotheca fuliginea, the “Cucumber Powdery Mildew Control at a compound concentration of 10 ppm or lower” value was “AA (≥85% control of cucumber powdery mildew)”.

For the compound `COc1ccccc1[C@H](Cn1c(=O)n(C(C)(C)C(=O)NC(C)C)c(=O)c2c(C)c(-n3nccn3)sc21)OCCC#N` [Compound I-193, (R)-2-(1-(2-(2-cyanoethoxy)-2-(2-methoxyphenyl)ethyl)-5-methyl-2,4-dioxo-6-(2H-1,2,3-triazol-2-yl)-1,4-dihydrothieno[2,3-d]pyrimidin-3 (2H)-yl)-N-isopropyl-2-methylpropanamide], the “Wheat Leaf Rust Control … of 10 ppm or lower” value in the experiment with Puccinia triticina was “AA (≥85% control of wheat leaf rust)”. The IC90 amounted to 0.08 mg/L (≈ 0.138 µM) in the experiment with Rhizoctonia solani (Rs) (setting [5]), 2 mg/L (≈ 3.45 µM) in experiment [3] (setting [6]) and 0.08 mg/L (≈ 0.138 µM) in experiment [4] (setting [7]). In [1], the “Septoria Leaf Blotch Control at a compound concentration of 25 ppm or lower” value is listed as “AA (≥85% control of wheat septoria leaf blotch)”. The “Barley Powdery Mildew Control at a compound concentration of 10 ppm or lower” value in experiment [2] is “AA (≥85% control of barley powdery mildew)”. The “Plant Weight” value with Rhizoctonia solani stood at 6.83 g. The “Improvement in plant weight” value in the experiment on Rhizoctonia solani turned out to be 85.0%. Moreover, the “Wheat Fusarium Head Blight Control at a compound concentration of 25 ppm or lower” value in the experiment with Fusarium graminearum is “B (from 50 to 69% control of wheat fusarium head blight)”. For the same compound, the “Asian Soybean Rust Control … of 25 ppm or lower” value in the experiment with Phakopsora pachyrhizi was “AA (≥85% control of Asian soybean rust)”. Moreover, the “Cucumber Powdery Mildew Control at a compound concentration of 10 ppm or lower” value in the experiment with Sphaerotheca fuliginea is “AA (≥85% control of cucumber powdery mildew)”.
